According to patent US11098040B2, “Compounds and methods of use” (Ferro Therapeutics, Inc., priority 2018, dated 2021):
Where two headings read alike, the source gives them in different places.

How the values were obtained:
MCF-10A = experiment: Cell viability assay (CellTiter Glo), non-tumorigenic breast epithelial cell line MCF-10A; type: cell-based; conditions: Homo sapiens, 96 hours
Experimental: (§1) Cell viability assay was performed to assess the potency of the compounds in human cancer cell lines KP4 (pancreatic ductal adenocarcinoma), MiaPaCa-2 (pancreatic carcinoma), AsPC-1 (pancreatic adenocarcinoma, ascites), 143B (osteosarcoma), and SJSA-1 (osteosarcoma). Selected compounds were also assayed in a human breast epithelial cell line MCF-10A, a nontumorigenic cell line as a control to assess differential activity. Cells at a density of 500-5,000 cells/well were seeded in 96-well plates and incubated at 37° C. overnight. A series of 9 different concentrations of compound stocks (500×) were created by 3-fold serial dilution in DMSO. These compounds were further diluted in culture media and then added to cells so that the final DMSO concentration was equal to 0.25% or less. After 96 hours of incubation, 50 μL of CellTiter Glo reagent (Promega) was added to each well and luminescence was measured after 10 minutes using EnVision (PerkinElmer). Compounds titrated from top concentration of up to 30 μM. The select compounds were tested initially from 30 μM as the top concentration in duplicates (range of 4.6 nM-30 μM). […] Luminescence from cells treated with DMSO alone was set as Max and % of inhibition was calculated as follows: Inhibition %=(Max-Sample value)/Max*100. Data was analyzed using XL-fit software (ID Business Solutions Ltd.). IC50, relative IC50, or % of top inhibition was calculated.
Paclitaxel was used as the positive control for cytotoxicity.

AsPC-1 = experiment: Cell viability assay (CellTiter Glo), pancreatic adenocarcinoma AsPC-1; type: cell-based; conditions: Homo sapiens, ASPC1; pancreatic adenocarcinoma, ascites, 96 hours, CellTiter Glo; read-out: IC50 AsPC-1
Experimental: as §1
(§2) The results of the assay in the pancreatic cell lines are given in Table 15a for PANC1, Table 15b for MiaPaCa-2, and Table 15c for AsPC-1.

SJSA-1 [1] = experiment: Cell viability assay (CellTiter Glo), osteosarcoma SJSA-1; type: cell-based; conditions: Homo sapiens, 96 hours
Experimental: as §1
The results of the assay in sarcoma cell lines are given in Table 21a for HT-1080 luc2 (fibrosarcoma expressing a luciferase gene), Table 21b for 143B (osteosarcoma), and Table 21c for SJSA-1 (osteosarcoma).

MiaPaCa-2 = experiment: Cell viability assay (CellTiter Glo), pancreatic carcinoma MiaPaCa-2; type: cell-based; conditions: Homo sapiens, MIA PaCa-2; pancreatic carcinoma, 96 hours, CellTiter Glo; read-out: IC50 MiaPaCa-2
Experimental: as §1, §2

SJSA-1 [2] = experiment: Cell proliferation (Alamar Blue) assay, SJSA-1 osteosarcoma, with/without ferrostatin; type: cell-based, human; conditions: Homo sapiens
Summary of the method: (§3)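 Cells seeded at 5000/well, 16-24 h, then exposed 24 h at 37° C to compound, 10-0.0005 μM in 3-fold dilutions, 1% DMSO final. Alamar Blue fluorescence (ex 540/em 590 nm) read after 1.5 h; IC50 from variable-slope sigmoidal fit.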

A431 = experiment: Cell proliferation (Alamar Blue) assay, A431; type: cell-based; conditions: Homo sapiens, A-431; Cell Line A431
Experimental: Cells (SJSA-1, 786-O and A431) were seeded (5000 cells/100 μL/well) in 96-well tissue culture plate and incubated at 37° C./5% CO2 for 16-24 hours. The cells were then treated with compounds (25 μL of 5×). The compound concentrations were 10-0.0005 μM prepared in 3-fold serial dilutions with final DMSO concentration of 1%. The plates were then incubated for 24 h at 37° C./5% CO2 in a moist environment. Then Alamar Blue™ reagent (final concentration 1×-12.5 μL) was added to each well and incubated for 1.5 hours at 37° C./5% CO2. The plates were read on fluorescence reader at 540 nm excitation and 590 nm emission wavelengths. The IC50 values were subsequently determined using a sigmoidal dose-response curve (variable slope) in GraphPad Prism® 5 software.
The cell proliferation assays for the compounds shown Table 25 was performed according to the protocols described herein, including Examples 4 and 6.

786-O = experiment: Cell proliferation (Alamar Blue) assay, 786-O renal cell carcinoma, with/without ferrostatin; type: cell-based; conditions: Homo sapiens
Summary of the method: as §3

[3] = PK profile, IV plasma concentration and PK parameters; type: in vivo; conditions: Balb/C nude, mouse, iv, 5 mg/kg, 30% Kolliphore EL with 1% poloxamar 407 in water; for AUC(0-t): read-out: AUC0-t; for AUC(0-inf): read-out: AUC0-∞
Experimental: The PK profiles of compounds 148, 149, 150, 156 and 169 are shown below. Compound 156 was formulated in 30% Kolliphor EL (Cremophor EL) in water and compounds 148, 149, 150 and 169 were formulated in 30% Kolliphore EL with 1% poloxamar 407 in water. All compounds were dosed at 5 mg/kg. Blood samples were collected at various time points and analyzed using the method described above.

A549 = experiment: Cell viability assay, A549 cells; type: cell-based; conditions: Homo sapiens, A549, Cell Line A549; read-out: IC50
Summary of the method: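 Growth of A549 cells was assessed with a cell viability assay. Cells were plated at 1,000-10,000 cells/well in 96-well plates and incubated overnight at 37° C. Nine-point 3-fold DMSO dilutions, starting from 30 μM and run in duplicate, were diluted into media (final DMSO 0.25% or less). After 96 hours, CellTiter Glo luminescence was read, inhibition was calculated against DMSO controls, and IC50 was fitted in XL-fit.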

[4] = SJSA-1, 24 h, Alamar Blue, 24 h, 2 μM ferrostatin, read-out: SJSA-1 (IC50, μM) 2 μM Ferrostatin
[5] = SJSA-1, 24 h, Alamar Blue, 24 h, without ferrostatin, read-out: SJSA-1 (IC50, μM) Without Ferrostatin
[6] = SJSA-1, Cell Line SJSA-1, read-out: IC50
[7] = 786-0, 24 h, Alamar Blue, 24 h, 2 μM ferrostatin, read-out: 786-O (IC50, μM) 2 μM Ferrostatin
[8] = 786-0, 24 h, Alamar Blue, 24 h, without ferrostatin, read-out: 786-O (IC50, μM) Without Ferrostatin
[9] = 786-0, Cell Line 786-O, read-out: IC50

COC(=O)[C@H]1Cc2c([nH]c3ccccc23)[C@H](c2ccc(C(=O)OCC3CC3)cc2)N1C(=O)CCl [Example 75]
IC50 (MCF-10A): 1290 nM
IC50 (AsPC-1): 28 nM

COC(=O)[C@H]1Cc2c([nH]c3ccccc23)[C@H](c2ccc(S(=O)(=O)N3CCC(O)CC3)cc2)N1C(=O)CCl [Example 35]
IC50 (MCF-10A): 4150 nM
IC50 (SJSA-1 [1]): 313 nM
IC50 (MiaPaCa-2): 117 nM

CCCC[C@H]1Cc2c([nH]c3ccccc23)[C@H](c2ccc(S(=O)(=O)NC3CC3)cc2F)N1C(=O)CCl [Compound 169, 4-((1S,3S)-3-butyl-2-(2-chloroacetyl)-2,3,4,9-tetrahydro-1H-pyrido[3,4-b]indol-1-yl)-N-cyclopropyl-3-fluorobenzenesulfonamide]
IC50 (SJSA-1 [2]; [4]): > 10 µM
IC50 (SJSA-1 [2]; [5]): 0.001 µM
IC50 (SJSA-1 [2]; [6]): 0.001 µM
IC50 (A431): 3900 nM
IC50 (786-O; [7]): 4.96 µM
IC50 (786-O; [8]): 0.003 µM
IC50 (786-O; [9]): 0.003 µM
C0 [3]: 5380 ng/mL
Cmax [3]: 2220 ng/mL
clearance [3]: 109 mL/min/kg
AUC(0-t) [3]: 760 ng·h/mL
AUC(0-inf) [3]: 762 ng·h/mL
Vd ([3]; read-out: Vd): 2.39 L/kg
Vd ([3]; read-out: Vss): 0.98 L/kg
half-life ([3]; time points considered 0.25-2 h (1 h excluded)): 0.25 h

COC(=O)[C@H]1Cc2c([nH]c3ccccc23)[C@H](c2ccc(S(=O)(=O)N3CC(O)C3)cc2)N1C(=O)CCl [Example 37]
IC50 (MCF-10A): 5460 nM
IC50 (SJSA-1 [1]): 630 nM
IC50 (MiaPaCa-2): 279 nM

Cc1cc(N2CCOCC2)ccc1[C@H]1c2[nH]c3ccccc3c2C[C@H](C)N1C(=O)CCl [Compound 234, 2-chloro-1-((1S,3S)-3-methyl-1-(2-methyl-4-morpholinophenyl)-1,3,4,9-tetrahydro-2H-pyrido[3,4-b]indol-2-yl)ethan-1-one]
IC50 (SJSA-1 [2]; [6]): 3.92 µM
IC50 (A431): 8000 nM
IC50 (786-O; [9]): 4.17 µM
IC50 (A549): 3250 nM

CCCC[C@H]1Cc2c([nH]c3ccccc23)[C@H](c2ccc(NC34CC5CC(CC(C5)C3)C4)cc2)N1C(=O)CCl [Compound 149, 1-((1S,3S)-1-(4-(((3R,5R,7R)-adamantan-1-yl)amino)phenyl)-3-butyl-1,3,4,9-tetrahydro-2H-pyrido[3,4-b]indol-2-yl)-2-chloroethan-1-one]
IC50 (SJSA-1 [2]; [6]): 0.002 µM
IC50 (A431): 3800 nM
IC50 (786-O; [9]): 0.001 µM
C0 [3]: 29400 ng/mL
Cmax [3]: 22000 ng/mL
clearance [3]: 13 mL/min/kg
AUC(0-t) [3]: 6540 ng·h/mL
AUC(0-inf) [3]: 6550 ng·h/mL
Vd ([3]; read-out: Vd): 2.34 L/kg
Vd ([3]; read-out: Vss): 0.53 L/kg
half-life ([3]; time points considered 2-8 h): 2.12 h

C[C@H]1Cc2c([nH]c3ccccc23)[C@H](c2ccc(C(=O)NC3CCC3)nc2)N1C(=O)CCl [Compound 214, 5-((1S,3S)-2-(2-chloroacetyl)-3-methyl-2,3,4,9-tetrahydro-1H-pyrido[3,4-b]indol-1-yl)-N-cyclobutylpicolinamide]
IC50 (SJSA-1 [2]; [4]): 4.15 µM
IC50 (SJSA-1 [2]; [5]): 0.03 µM
IC50 (SJSA-1 [2]; [6]): 0.03 µM
IC50 (A431): 1580 nM
IC50 (786-O; [7]): 4.72 µM
IC50 (786-O; [8]): 0.019 µM
IC50 (786-O; [9]): 0.019 µM

C[C@H]1Cc2c([nH]c3ccccc23)[C@@H](c2ccc(N3CCOCC3)cc2F)N1C(=O)CCl [Compound 129]
IC50 (SJSA-1 [2]; [6]): 4.4 µM
IC50 (A431): 4400 nM
IC50 (786-O; [9]): 4.2 µM

C[C@H]1Cc2c([nH]c3ccccc23)[C@H](c2ccc(N3CCOCC3)cc2F)N1C(=O)CCl [Compound 233]
IC50 (SJSA-1 [2]; [6]): 0.0443 µM
IC50 (A431): 4800 nM
IC50 (786-O; [9]): 0.0337 µM
IC50 (A549): 1970 nM

C[C@H]1Cc2c([nH]c3ccccc23)[C@@H](c2ccc(N3CCOCC3)nc2)N1C(=O)CCl [Compound 157]
IC50 (SJSA-1 [2]; [6]): > 10 µM
IC50 (A431): 2000 nM
IC50 (786-O; [9]): > 10 µM

COC(=O)[C@H]1Cc2c([nH]c3ccccc23)[C@H](c2ccc(C(=O)N3CCOCC3)cc2)N1C(=O)CCl [Example 26]
IC50 (MCF-10A): 3970 nM
IC50 (SJSA-1 [1]): 339 nM
IC50 (MiaPaCa-2): 52 nM

C#CCOc1ccc([C@H]2c3[nH]c4ccccc4c3C[C@H](C(=O)OC)N2C(=O)CCl)cc1 [Compound 147, methyl (1S,3R)-2-(2-chloroacetyl)-1-(4-(prop-2-yn-1-yloxy)phenyl)-2,3,4,9-tetrahydro-1H-pyrido[3,4-b]indole-3-carboxylate]
IC50 (SJSA-1 [2]; [6]): 0.159 µM
IC50 (A431): > 10000 nM
IC50 (786-O; [9]): 0.049 µM

C#CC(=O)N1[C@@H](CCCC)Cc2c([nH]c3ccccc23)[C@@H]1c1ccc(NC23CC4CC(CC(C4)C2)C3)cc1 [Compound 148, 1-((1 S,3S)-1-(4-(((3R,5R,7R)-adamantan-1-yl)amino)phenyl)-3-butyl-1,3,4,9-tetrahydro-2H-pyrido[3,4-b]indol-2-yl)prop-2-yn-1-one]
IC50 (SJSA-1 [2]; [6]): 0.008 µM
IC50 (A431): 3600 nM
IC50 (786-O; [9]): 0.006 µM
C0 [3]: 40600 ng/mL
Cmax [3]: 33000 ng/mL
clearance [3]: 4.79 mL/min/kg
AUC(0-t) [3]: 17200 ng·h/mL
AUC(0-inf) [3]: 17400 ng·h/mL
Vd ([3]; read-out: Vd): 2.39 L/kg
Vd ([3]; read-out: Vss): 0.47 L/kg
half-life ([3]; time points considered 4-24 h): 5.76 h

COC(=O)[C@H]1Cc2c([nH]c3ccccc23)[C@H](c2ccc(C(=O)NCCN3CCOCC3)cc2)N1C(=O)CCl [Example 27]
IC50 (MCF-10A): 9410 nM
IC50 (SJSA-1 [1]): 1410 nM
IC50 (MiaPaCa-2): 466 nM

CCCC[C@H]1Cc2c([nH]c3ccc(F)cc23)[C@H](c2ccc(S(=O)(=O)NC3CCC3)cc2)N1C(=O)CCl [Compound 145, 4-((1S,3S)-3-butyl-2-(2-chloroacetyl)-6-fluoro-2,3,4,9-tetrahydro-1H-pyrido[3,4-b]indol-1-yl)-N-cyclobutylbenzenesulfonamide]
IC50 (SJSA-1 [2]; [6]): 0.004 µM
IC50 (A431): 4600 nM
IC50 (786-O; [9]): 0.003 µM

COC[C@H]1Cc2c([nH]c3ccccc23)[C@H](c2ccc(C(=O)NC3CC3)cc2F)N1C(=O)CCl [Compound 166, 4-((1S,3R)-2-(2-chloroacetyl)-3-(methoxymethyl)-2,3,4,9-tetrahydro-1H-pyrido[3,4-b]indol-1-yl)-N-cyclopropyl-3-fluorobenzamide]
IC50 (SJSA-1 [2]; [4]): > 10 µM
IC50 (SJSA-1 [2]; [5]): 0.01 µM
IC50 (SJSA-1 [2]; [6]): 0.01 µM
IC50 (A431): > 10000 nM
IC50 (786-O; [7]): 9.52 µM
IC50 (786-O; [8]): 0.008 µM
IC50 (786-O; [9]): 0.008 µM
